Results published in ChEMBL document CHEMBL5143608, “Peptide-based long-acting co-agonists of GLP-1 and cholecystokinin 1 receptors as novel anti-diabesity agents” (Eur J Med Chem, 2022).
pEC50: −log10 of the molar value. The source made the active and inactive calls. The calls are words filed in the database; no cut-off is given here. *1 amine or outer side, *2 acyl side, *3 side chain or, on linkers, in order; H or OH if unused. Where a SMILES comes first, the peptide text is derived from it. [ ]: non-standard residue; d: D form. The star is where a group is joined. ξ: configuration not given here. Phe(4-CH2SO3H) = N[C@@H](Cc1ccc(CS(=O)(=O)O)cc1)C(=O)O; C18 diacid = O=C(O)CCCCCCCCCCCCCCCCC(=O)*; γGlu = O=C(O)[C@H](CCC(=O)[*:2])N[*:1]; NMeF = CN[C@@H](Cc1ccccc1)C(=O)O; dNMeD = CN[C@H](CC(=O)O)C(=O)O; ξpGlu = O=C1CCC(C(=O)O)N1; Nle = CCCC[C@H](N)C(=O)O; AEEA = NCCOCCOCC(=O)O

Key:
[1] = biological target: T1, Cholecystokinin receptor type A (Homo sapiens, UniProt P32238); test: Agonist activity at human CCK1R expressed in HEK293 cells assessed as ERK1/2 phosphorylation incubated for 5 mins by AlphaScreen assay; format: functional, cell-based
T1 sequence (P32238 whole entry): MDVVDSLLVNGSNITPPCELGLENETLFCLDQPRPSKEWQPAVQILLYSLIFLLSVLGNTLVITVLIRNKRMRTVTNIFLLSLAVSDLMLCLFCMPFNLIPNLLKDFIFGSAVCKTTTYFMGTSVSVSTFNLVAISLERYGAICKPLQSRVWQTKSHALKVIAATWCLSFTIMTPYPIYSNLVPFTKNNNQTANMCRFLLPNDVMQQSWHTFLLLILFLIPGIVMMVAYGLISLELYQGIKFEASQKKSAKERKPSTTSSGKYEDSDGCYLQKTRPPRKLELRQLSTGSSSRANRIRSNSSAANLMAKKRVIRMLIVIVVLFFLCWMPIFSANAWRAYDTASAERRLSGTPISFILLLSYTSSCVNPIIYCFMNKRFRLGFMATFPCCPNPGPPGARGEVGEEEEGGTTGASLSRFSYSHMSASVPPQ

[2] = biological target: T2, Gastrin/cholecystokinin type B receptor (Homo sapiens, UniProt P32239); test: Agonist activity at human CCK2R expressed in HEK293 cells assessed as ERK1/2 phosphorylation incubated for 5 mins by AlphaScreen assay; format: functional, cell-based
T2 sequence (P32239 whole entry): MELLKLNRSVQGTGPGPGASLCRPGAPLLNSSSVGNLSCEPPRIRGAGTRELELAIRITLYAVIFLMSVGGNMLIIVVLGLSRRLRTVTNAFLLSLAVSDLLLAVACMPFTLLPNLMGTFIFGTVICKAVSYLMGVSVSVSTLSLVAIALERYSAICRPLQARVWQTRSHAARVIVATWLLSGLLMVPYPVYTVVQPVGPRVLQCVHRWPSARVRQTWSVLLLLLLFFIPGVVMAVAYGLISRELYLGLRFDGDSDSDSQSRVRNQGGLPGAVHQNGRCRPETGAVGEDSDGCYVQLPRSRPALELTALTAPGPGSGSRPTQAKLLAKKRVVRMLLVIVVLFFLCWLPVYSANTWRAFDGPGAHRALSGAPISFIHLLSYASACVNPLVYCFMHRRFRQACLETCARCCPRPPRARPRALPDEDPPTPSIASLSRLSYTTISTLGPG

Mus musculus [3] = test: Anti-diabesity activity against high fat diet-induced DIO C57BL/6 mouse model assessed as decrease in body weight at 25 nmol/kg, sc administered for 2 weeks; format: functional; conditions: C57BL/6, 336 h, time 14 day
Mus musculus [4] = test: Anti-diabesity activity against high fat diet-induced DIO C57BL/6 mouse model assessed as reduction in food intake at 25 nmol/kg, sc administered for 2 weeks; format: functional, organism-based; conditions: time 14.0 day
Mus musculus [5] = test: Anti-diabesity activity against high fat diet-induced DIO C57BL/6 mouse model assessed as reduction in fat mass accumulation at 25 nmol/kg, sc administered for 2 weeks and measured on day 15 by NMR analysis; format: functional, organism-based; conditions: time 15.0 day
Mus musculus [6] = test: Anti-diabesity activity against high fat diet-induced DIO C57BL/6 mouse model assessed as reduction in fasted blood glucose level at 25 nmol/kg, sc administered for 2 weeks and measured on day 15 by glucometer analysis; format: functional, organism-based; conditions: time 15.0 day
Mus musculus [7] = test: Hypoglycemic activity in db/db mouse assessed as improvement in glucose tolerance at 25 nmol/kg, ip administered 30 min before oral glucose administration and measured upto 120 mins by OGTT; format: functional, organism-based
Mus musculus [8] = test: Hypoglycemic activity in db/db mouse assessed as reduction in glucose excursion at 25 nmol/kg, ip administered 30 min before oral glucose administration and measured upto 120 mins by OGTT; format: functional, organism-based
Mus musculus [9] = test: Insulinotropic activity in db/db mouse assessed as elevation of plasma insulin level at 25 nmol/kg, ip administered 30 min before oral glucose administration and measured upto 60 mins by ELISA; format: functional, organism-based; conditions: time <= 90.0 min
Mus musculus [10] = test: Anti-diabesity activity in DIO C57BL/6 mouse assessed as reduction in body weight at 10 nmol/kg, sc administered every 2 days for 10 days; format: functional; conditions: C57BL/6, 240 h, time 10 day
Mus musculus [11] = test: Anti-diabesity activity in DIO C57BL/6 mouse assessed as reduction in body weight at 25 nmol/kg, sc administered every 2 days for 10 days; format: functional; conditions: C57BL/6, 240 h, time 10 day
Mus musculus [12] = test: Anti-diabesity activity in DIO C57BL/6 mouse assessed as improvement in insulin sensitivity at 25 nmol/kg, sc administered every 2 days for 10 days by insulin tolerance test; format: functional, organism-based; conditions: time 10.0 day
Mus musculus [13] = test: Anti-diabesity activity against DIO C57BL/6 mouse assessed as reduction in body weight at 25 nmol/kg, sc administered every 2 days for 3 weeks; format: functional; conditions: C57BL/6, 504 h, time 21 day
Mus musculus [14] = test: Anti-diabesity activity against DIO C57BL/6 mouse assessed as reduction in cumulative food intake at 25 nmol/kg, sc administered every 2 days for 3 weeks; format: functional, organism-based; conditions: time 21.0 day
Mus musculus [15] = test: Anti-diabesity activity against DIO C57BL/6 mouse assessed as decrease in fat mass at 25 nmol/kg, sc administered every 2 days for 3 weeks; format: functional, organism-based; conditions: time 21.0 day
Mus musculus [16] = test: Anti-diabesity activity against DIO C57BL/6 mouse assessed as reduction in fasted blood glucose level at 25 nmol/kg, sc administered every 2 days for 3 weeks; format: functional, organism-based; conditions: time 21.0 day
Mus musculus [17] = test: Anti-diabesity activity against DIO C57BL/6 mouse assessed as improvement in glucose tolerance at 25 nmol/kg, sc administered every 2 days for 3 weeks by OGTT; format: functional, organism-based; conditions: time 21.0 day
Mus musculus [18] = test: Anti-diabesity activity against DIO C57BL/6 mouse assessed as reduction in cholesterol level in serum at 25 nmol/kg, sc administered every 2 days for 3 weeks; format: functional, organism-based; conditions: time 21.0 day
Mus musculus [19] = test: Anti-diabesity activity against DIO C57BL/6 mouse assessed as reduction in triglycerides level in serum at 25 nmol/kg, sc administered every 2 days for 3 weeks; format: functional, organism-based; conditions: time 21.0 day
Mus musculus [20] = test: Anti-diabesity activity in DIO C57BL/6 mouse assessed as reduction in body weight at 100 nmol/kg, sc administered every 2 days for 10 days; format: functional; conditions: C57BL/6, 240 h, time 10 day
Mus musculus [21] = test: Anti-diabesity activity against high fat diet-induced DIO C57BL/6 mouse model assessed as improvement in glucose tolerance level at 25 nmol/kg, sc administered for 2 weeks and measured on day 16 by oral glucose tolerance test; format: functional, organism-based; conditions: time 16.0 day
Mus musculus [22] = test: Anorectic activity in ICR mouse assessed as decrease in food intake at 25 nmol/kg, ip and measured after 24 hrs; format: functional, organism-based
BRIN-BD11 = test: Insulinotropic activity in rat BRIN-BD11 cells assessed as increase in insulin secretion incubated for 20 mins by radioimmunoassay; format: functional, cell-based; conditions: DDE = dose-dependent effect

CCCC[C@H](NC(=O)[C@H](Cc1ccc(CS(=O)(=O)O)cc1)NC(=O)[C@H](CC(=O)O)NC(=O)COCCOCCNC(=O)COCCOCCNC(=O)CC[C@H](NC(=O)CCCCCCCCCCCCCCCCC(=O)O)C(=O)O)C(=O)NCC(=O)N[C@@H](Cc1c[nH]c2ccccc12)C(=O)N[C@@H](CCCC)C(=O)N(C)[C@H](CC(=O)O)C(=O)N(C)[C@@H](Cc1ccccc1)C(N)=O ({C18 diacid-γGlu-AEEA-AEEA}-D[Phe(4-CH2SO3H)][Nle]GW[Nle][dNMeD][NMeF]-NH2)
pEC50 [1]: 9.68
pEC50 [2]: < 7.00
inhibition in vivo at 0.025 µmol/kg (Mus musculus [3]): 7.1%
Activity (Mus musculus [4]): Active
Activity (Mus musculus [5]): Active
Activity (Mus musculus [6]): Active
Activity (Mus musculus [7]): Active
Activity (Mus musculus [8]): Active
Activity (Mus musculus [9]): Active
inhibition in vivo at 0.01 µmol/kg (Mus musculus [10]): 3.9%
inhibition in vivo at 0.025 µmol/kg (Mus musculus [11]): 6.1%
Activity (Mus musculus [12]): Active
inhibition in vivo at 0.025 µmol/kg (Mus musculus [13]): 9.8%
Activity (Mus musculus [14]): Active
Activity (Mus musculus [15]): Active
Activity (Mus musculus [16]): Active
Activity (Mus musculus [17]): Active
Activity (Mus musculus [18]): Active
Activity (Mus musculus [19]): Active
inhibition in vivo at 0.1 µmol/kg (Mus musculus [20]): 10%
Activity (Mus musculus [21]): Active
Activity (Mus musculus [22]): Active
Activity (BRIN-BD11): Dde

CC(C)C[C@H](NC(=O)[C@H](Cc1c[nH]c2ccccc12)NC(=O)CNC(=O)[C@H](Cc1ccc(O)cc1)NC(=O)[C@H](C)NC(=O)[C@H](CCC(=O)O)NC(=O)[C@H](CCC(=O)O)NC(=O)[C@H](CCC(=O)O)NC(=O)[C@H](CCC(=O)O)NC(=O)[C@H](CCC(=O)O)NC(=O)[C@H](CC(C)C)NC(=O)[C@H](Cc1c[nH]c2ccccc12)NC(=O)[C@@H]1CCCN1C(=O)CNC(=O)C1CCC(=O)N1)C(=O)N[C@@H](CC(=O)O)C(=O)N[C@@H](Cc1ccccc1)C(N)=O (stereo not given in full) ([ξpGlu]GPWLEEEEEAYGWLDF-NH2)
pEC50 [1]: < 7.00
pEC50 [2]: 8.62
